Measurements from patent publication US7037917B2, “HIV replication inhibiting pyrimidines” (Janssen Pharmaceutica, N.V., priority 1998, dated 2006).
Where a name gives a salt, the structure may show the parent alone. Read-outs that look alike come from different tables or passages of the source.

How the values were obtained:
[1] = cytotoxicity in mock-infected MT-4 cells (MTT); assay type: cell-based; details: human, mock-infected MT-4 cells; concentration reducing absorbance of mock-infected MT-4 control by 50%; MTT
mock-infected MT-4 cells = test: cytotoxicity in mock-infected MT-4 cells (MTT); assay type: cell-based
HIV-1 [2] = tested on: HIV-1
Description: (§1) A rapid, sensitive and automated assay procedure was used for the in vitro evaluation of anti-HIV agents. […] Inhibition of the HIV-induced cytopathic effect was used as the end point. […] The percent protection achieved by the compound in HIV-infected cells was calculated by the following formula:
(§2) [formula] whereby (ODT)HIV is the optical density measured with a given concentration of the test compound in HIV-infected cells; (ODC)HIV is the optical density measured for the control untreated HIV-infected cells; (ODC)MOCK is the optical density measured for the control untreated mock-infected cells; all optical density values were determined at 540 nm. […] The ratio of CC50 to IC50 was defined as the selectivity index (SI).

HIV-1 [3] = test: microbe, parasite or virus in culture; details: Human immunodeficiency virus 1, MT4
Description: as §1, §2

Row | melting point [°C] | Compound | CC50 [1] [µM] | CC50 (mock-infected MT-4 cells) [µM] | further results
1 | – | Cc1cc(C)c(Nc2nc(Nc3ccc(C#N)cc3)ncc2Cl)c(C)c1 [Compound 5, 4-[[5-chloro-4-[(2,4,6-trimethylphenyl)amino]-2-pyrimidinyl]amino]benzonitrile] | 0.4 | – | –
2 | 185 to 186 | CONc1nc(Nc2ccc(C#N)cc2)nc(Oc2c(C)cc(C#N)cc2C)c1Br [Compound 48, 4-[[5-bromo-4-(4-cyano-2,6-dimethylphenoxy)-6-(methoxyamino)-2-pyrimidinyl]amino]benzonitrile] | – | – | –
3 | – | Cc1cc(C#N)cc(C)c1Oc1nc(Nc2ccc(C#N)cc2)ncc1Br [Compound 17, 4-[[5-bromo-4-(4-cyano-2,6-dimethylphenoxy)-2-pyrimidinyl]amino]benzonitrile] | > 10 | – | –
4 | – | Cc1cc(C#N)cc(C)c1Nc1nc(Nc2ccc(C#N)cc2)ncc1Cl [Compound 13] | – | 0.4 | –
5 | – | Cc1cc(Cl)cc(C)c1Oc1nc(Nc2ccc(C#N)cc2)ncc1Cl [Compound 16] | – | > 100 | –
6 | > 300 | Cc1cc(C#N)cc(C)c1Oc1nc(Nc2ccc(C#N)cc2)ncc1N [Compound 50, 4-[[5-amino-4-(4-cyano-2,6-dimethylphenoxy)-2-pyrimidinyl]amino]benzonitrile] | – | – | –
7 | – | Cc1cc(C)c(Nc2ncc(Cl)c(Nc3ccc(C#N)cc3)n2)c(C)c1 [Compound 1, 4-[[5-chloro-2-[(2,4,6-trimethylphenyl)amino]-4-pyrimidinyl]amino]benzonitrile] | 10.9 | – | –
8 | – | Cc1cc(C(C)(C)C)cc(C)c1Nc1nc(Nc2ccc(C#N)cc2)ncc1Cl [Compound 12] | – | 48.5 | –
9 | 165 to 175 | C#Cc1cnc(Nc2ccc(C#N)cc2)nc1Nc1c(C)cc(C)cc1C [Compound 52, 4-[[5-ethynyl-4-[(2,4,6-trimethylphenyl)amino]-2-pyrimidinyl]amino]benzonitrile] | – | – | –
10 | – | Cc1cc(C)c(Sc2nc(Nc3ccc(C#N)cc3)ncc2Cl)c(C)c1 [Compound 7] | – | > 100 | –
11 | – | Cc1cc(C#N)cc(C)c1Oc1nc(N(COC(=O)C(C)(C)C)c2ccc(C#N)cc2)ncc1Br [Compound 60] | – | 74.5 | IC50 (HIV-1 [2]; dose achieving 50% protection of HIV-infected MT-4 cells against cytopathic effect, MTT, OD 540 nm): 0.002 µM
12 | 220 to 221 | Cc1cc(C)c(Nc2nc(Nc3ccc(C#N)cc3)nc(Cl)c2Br)c(C)c1 [Compound 41, 4-[[5-bromo-4-chloro-6-[(2,4,6-trimethylphenyl)amino]-2-pyrimidinyl]amino]benzonitrile] | – | – | –
13 | 277 to 280 | Cc1cc(C#N)cc(C)c1Nc1nc(Nc2ccc(C#N)cc2)ncc1Br [Compound 45, 4-[[5-bromo-6-[(4-cyano-2,6-dimethylphenyl)amino]-2-pyrimidinyl]amino]benzonitrile] | – | – | –
14 | – | Cc1cc(C#N)cc(C)c1Oc1nc(Nc2ccc(C#N)cc2)ncc1Cl [Compound 18] | – | > 10 | –
15 | 224 to 225 | Cc1cc(C)c(Nc2nc(Nc3ccc(C#N)cc3)ncc2N)c(C)c1 (as salt: trifluoroacetate) [Compound 51, 4-[[5-amino-4-[(2,4,6-trimethylphenyl)amino]-2-pyrimidinyl]amino]benzonitrile] | – | – | –
16 | 209 to 214 | Cc1cc(C)c(Nc2nc(Nc3ccc(C#N)cc3)ncc2-c2ccccc2)c(C)c1 [Compound 53, 4-[[5-phenyl-4-[(2,4,6-trimethylphenyl)amino]-2-pyrimidinyl]amino]benzonitrile] | – | – | –

Row | melting point [°C] | Compound | CC50 [1] [µM] | CC50 (mock-infected MT-4 cells) [µM] | further results
17 | – | Cc1cc(C)c(Oc2nc(Nc3ccc(C#N)cc3)ncc2Cl)c(C)c1 [Compound 6, 4-[[5-chloro-4-(2,4,6-trimethylphenoxy)-2-pyrimidinyl]amino]benzonitrile] | > 100 | – | –
18 | – | Cc1cc(C)c(Nc2nc(Nc3ccc(C#N)cc3)ncc2Br)c(C)c1 [Compound 3, 4-[[5-bromo-4-[(2,4,6-trimethylphenyl)amino]-2-pyrimidinyl]amino]benzonitrile] | 4.4 | – | –
19 | – | COC(=O)COCC(=O)N(c1ccc(C#N)cc1)c1ncc(Br)c(Oc2c(C)cc(C#N)cc2C)n1 [Compound 61] | > 100 | – | SI (selectivity index) (HIV-1 [2]; ratio of CC50 to IC50): >52631; IC50 (HIV-1 [3]): 0.002 µM
20 | 260 to 262 | Cc1cc(C#N)cc(C)c1Oc1nc(Nc2ccc(C#N)cc2)nc(C)c1Br [Compound 44, 4-[[5-bromo-4-(4-cyano-2,6-dimethylphenoxy)-6-methyl-2-pyrimidinyl]amino]benzonitrile] | – | – | –
21 | 237 to 242 | C=Cc1cnc(Nc2ccc(C#N)cc2)nc1Nc1c(C)cc(C)cc1C (as salt: trifluoroacetate) [Compound 54, 4-[[5-ethenyl-4-[(2,4,6-trimethylphenyl)amino]-2-pyrimidinyl]amino]benzonitrile] | – | – | –
22 | – | Cc1cc(C)c(Nc2ncc(Br)c(Nc3ccc(C#N)cc3)n2)c(C)c1 [Compound 2, 4-[[5-bromo-2-[(2,4,6-trimethylphenyl)amino]-4-pyrimidinyl]amino]benzonitrile] | 82.6 | – | –
23 | – | Cc1cc(Br)cc(C)c1Nc1nc(Nc2ccc(C#N)cc2)ncc1Cl [Compound 9] | – | 1.2 | –
24 | 259 to 260 | Cc1cc(C#N)cc(C)c1Nc1nc(Nc2ccc(C#N)cc2)nc(Cl)c1Br [Compound 42, 4-[[5-bromo-4-chloro-6-[(4-cyano-2,6-dimethylphenyl)amino]-2-pyrimidinyl]amino]benzonitrile] | – | – | –
25 | – | Cc1cc(C)c(Nc2nc(Nc3ccc(C#N)cc3)nc(N)c2Cl)c(C)c1.O=C(O)C(F)(F)F [Compound 4, 4-[[4-amino-5-chloro-6-[(2,4,6-trimethylphenyl)amino]-2-pyrimidinyl]amino]benzonitrile trifluoroacetate (1:1)] | 10 | – | –
26 | – | N#Cc1ccc(Nc2ncc(Cl)c(Nc3c(F)cc(Br)cc3Br)n2)cc1 [Compound 11] | – | 0.4 | –
27 | – | Cc1cc(Br)c(Nc2nc(Nc3ccc(C#N)cc3)ncc2Cl)c(Br)c1 [Compound 10, 4-[[5-chloro-4-[(2,6-dibromo-4-methylphenyl)amino]-2-pyrimidinyl]amino]benzonitrile] | 0.4 | – | –
28 | 208 to 210 | Cc1cc(C#N)cc(C)c1Oc1nc(Nc2ccc(C#N)cc2)nc(NCCN2CCCC2)c1Br.Cl | – | – | –
29 | – | Cc1cc(Br)cc(C)c1Oc1nc(Nc2ccc(C#N)cc2)ncc1Cl [Compound 8] | – | > 100 | –
30 | – | Cc1cc(C#N)cc(C)c1Oc1nc(Nc2ccc(C#N)cc2)nc(N)c1Br [Compound 46, 4-[[4-amino-5-bromo-6-(4-cyano-2,6-dimethylphenyloxy)-2-pyrimidinyl]amino]benzonitrile] | > 200 | – | –
31 | – | Cc1cc(Br)cc(Cl)c1Oc1nc(Nc2ccc(C#N)cc2)ncc1Cl [Compound 15] | – | > 100 | –
